In US7411002B2, “Polycationic sulfonamides and use thereof” (priority 2006, dated 2008):
Like-named read-outs stand apart in the source and are kept apart here.

How the values were obtained:
[1] = system: LPS-induced nitric oxide production in murine macrophage J774A.1 cells; assay: NO inhibition (Griess nitrite assay) in LPS-stimulated murine macrophage J774A.1 cells; assay type: cell-based; conditions: Mus musculus, J774.A1, 10 ng/ml LPS, 16 h
Procedure: Assessment of neutralization of LPS toxicity: NO inhibition activity. Nitric oxide production is measured as total nitrite in murine macrophage J774A.1 cells using the Griess assay^70 as described previously.^71 J774A.1 cells are plated at ˜10^5/ml in a volume of 40 μl/well, in 384-well, flat-bottomed, cell culture treated microtiter plates and subsequently stimulated with 10 ng/ml lipopolysaccharide (LPS). Concurrent to LPS stimulation, serially diluted concentrations of test compounds are added to the cell medium and left to incubate for 16 h. Polymyxin B is used as reference compound in each plate. Positive-(LPS stimulation only) and negative-controls (J774A.1 medium only) are included in each experiment. Nitrite concentrations are measured by adding 40 μl of supernatant to equal volumes of Griess reagents (50 μl/well; 0.1% NED solution in ddH2O and 1% sulfanilamide, 5% phosphoric acid solution in ddH2O) and incubating for 15 minutes at room temperature in the dark. Absorbance at 535 nm is measured using a Molecular Devices Spectramax M2 multifunction plate reader (Sunnyvale, Calif.). Nitrite concentrations are interpolated from standard curves obtained from serially diluted sodium nitrite standards. IC50 values are determined for compounds that neutralize LPS inhibit NO production in a dose-dependent manner (Tables A-F). Results in this assay parallel those in the binding assay.

[2] = Rapid-throughput BODIPY-TR cadaverine (BC) fluorescence displacement assay for binding affinity to LPS; conditions: half-maximal effective displacement of BODIPY-TR cadaverine probe from LPS; 50 mM Tris buffer, pH 7.4; read-out: Binding affinity (BC displacement) ED50 value
Procedure: Rapid-throughput Fluorescence Displacement Assay for quantifying binding affinities to LPS. […] Polymyxin B (PMB), a peptide antibiotic known to bind and neutralize LPS^65 serves as the positive control and reference compound for every plate, enabling the quantitative assessment of repeatability and reproducibility (CV and Z′ factors) for the assay. Automated liquid handling is performed on a Precision 2000 automated microplate pipetting system, programmed using the Precision Power software, Bio-Tek Instruments Inc., VT, USA. Results are reported as half-maximal effective displacement of probe (ED50) (Tables A-F). In all experiments, Polymyxin B (PMB), a decapeptide antibiotic, known to bind and neutralize LPS,^66-69 is used as a reference compound.

[3] = system: LPS-induced NF-κB induction in human embryonic kidney 293 cells cotransfected with TLR4, CD14 and MD2; assay: Inhibition of LPS induction of NF-κB (seAP reporter) in HEK 293 cells cotransfected with TLR4, CD14 and MD2; assay type: cell-based; conditions: for IC50: inhibition of LPS-induced NF-κB induction, HEK 293 TLR4/CD14/MD2 reporter cells, read-out: NFκβ inhibition IC50 value; for activity in words (LPS binding / cell-based cytokine inhibition, comment on Table F): qualitative comparison with spermine-sulfonamide counterparts
Excerpt: Assessment of Inhibition of Cytokine Induction (NF-κB): The inhibition of induction of NF-κB (a key transcripitional activator of the innate immune system, leading to uncontrolled cytokine release^72,73 which ultimately leads to multiple organ failure and the shock syndrome) is quantified using human embryonic kidney 293 cells cotransfected with TLR4 (LPS receptor), CD14 and MD2 (co-receptors), available from InvivoGen, Inc. (HEK-Bluetm, San Diego, Calif.), as per protocols provided by the vendor. Stable expression of secreted alkaline phosphatase (seAP) under control of NF-κB/AP-1 promoters is inducible by LPS, and extracellulare seAP in the supernatant is proportional to NF-κB induction. seAP is assayed spectrophotometrically using an alkaline phosphatase-specific chromogen at 620 nm using a rapid-throughput, automated protocol employing a Bio-Tek P2000 liquid handler. Results showing the ability of polycationic sulfonamide compounds to inhibit the induction of NF-κB by LPS are shown in Tables A-F.

CCCCCCCCCCCCCCCCCCS(=O)(=O)NCCCNCCCNCCCCNCCCN [MQTS 2380, N^1-Octadecanylsulfonyl-1,18-diamino-5,9,14-triazaoctadecane]
IC50 [1]: 0.23 µM
EC50 [2]: 4.45 µM
IC50 ([3]; Homo sapiens, HEK293): 1.06 µM

CCCCCCCCCCCCCCCCCCS(=O)(=O)NCCCN(CCCNCCCCNCCCN)CCCNS(=O)(=O)CCCCCCCCCCCCCCCCCC [MQTS 2394, N^1-Bis[N-octadecanylsulfonyl-3-aminopropyl]-1,14-diamino-5,10-diazabutadecane]
IC50 [1]: 2330 µM
EC50 [2]: 28.3 µM
IC50 ([3]; Homo sapiens, HEK293): 64 µM

CCCCCCCCS(=O)(=O)NCCCNCCCCNCCCN [MQTS 2351, N^1-Octanylsulfonyl-1,14-diamino-5,10-diazabutadecane]
IC50 [1]: 1.44 µM
EC50 [2]: 6.64 µM
IC50 ([3]; Homo sapiens, HEK293): 33.3 µM

N^1,N^14-Bis[N-octanylsulfonyl-3-aminopropyl]-1,14-diamino-5,10-diazabutadecane [MQTS 2397]
EC50 [2]: 2.6 µM
IC50 [3]: 0.607 µM

CCCCCCCCS(=O)(=O)NCCCNC/C=C/CNCCCN [MQTS 2415]
EC50 [2]: 12.5 µM
IC50 ([3]; Homo sapiens, HEK293): 12.7 µM

CCCCCCCCCCCCS(=O)(=O)NCCCNCCCNCCCCNCCCN [MQTS 2382, N^1-Dodecanylsulfonyl-1,18-diamino-5,9,14-triazaoctadecane]
IC50 [1]: 0.39 µM
EC50 [2]: 2.92 µM
IC50 ([3]; Homo sapiens, HEK293): 0.19 µM

N^1,N^14-Bis[N-dodecanylsulfonyl-3-aminopropyl]-1,14-diamino-5,10-diazabutadecane [MQTS 2399]
EC50 [2]: 55.2 µM
IC50 [3]: 10.3 µM

CCCCCCCCCCS(=O)(=O)NCCCN(CCCNCCCNCCCCNCCCN)CCCNS(=O)(=O)CCCCCCCCCC [MQTS 2417, N^1-Bis[N-decanylsulfonyl-3-aminopropyl]-1,18-diamino-5,9,14-triazaoctadecane]
IC50 [1]: 0.43 µM
EC50 [2]: 1.16 µM
IC50 ([3]; Homo sapiens, HEK293): 2.2 µM

CCCCCCCCCCS(=O)(=O)NCCCNCCCNCCCCNCCCN [MQTS 2381]
IC50 [1]: 1.09 µM
EC50 [2]: 2.89 µM
IC50 ([3]; Homo sapiens, HEK293): 0.278 µM

CCCCCCCCCCCCCCCCS(=O)(=O)NCCCCCCCCCCCCN [MQTS 2369]
IC50 ([3]; Homo sapiens, HEK293): 200 µM
activity in words (LPS binding / cell-based cytokine inhibition, comment on Table F) [3]: much lower activities

CCCCCCCCS(=O)(=O)NCCCNCCCNCCCCNCCCN [MQTS 2379, N^1-Octanylsulfonyl-1,18-diamino-5,9,14-triazaoctadecane]
IC50 [1]: 6.47 µM
EC50 [2]: 2.84 µM
IC50 ([3]; Homo sapiens, HEK293): 0.816 µM

CCCCCCCCCCCCCCCCS(=O)(=O)NCCCN(CCCNCCCNCCCCNCCCN)CCCNS(=O)(=O)CCCCCCCCCCCCCCCC [MQTS 2391]
IC50 [1]: 5.2 µM
EC50 [2]: 9.31 µM
IC50 ([3]; Homo sapiens, HEK293): 2.68 µM

CCCCCCCCCCCCCCCCCCS(=O)(=O)NCCCNCCCCNCCCN [MQTS 2378]
IC50 [1]: 0.48 µM
EC50 [2]: 6.01 µM
IC50 ([3]; Homo sapiens, HEK293): 0.36 µM

CCCCCCCCCCS(=O)(=O)NCCCN(CCCNCCCCNCCCN)CCCNS(=O)(=O)CCCCCCCCCC [MQTS 2419, N^1-Bis[N-decanylsulfonyl-3-aminopropyl]-1,14-diamino-5,10-diazabutadecane]
IC50 [1]: 1.1 µM
EC50 [2]: 2.4 µM
IC50 ([3]; Homo sapiens, HEK293): 5.17 µM

CCCCCCCCCCCCS(=O)(=O)NCCCNCCCNCCCN [MQTS 2414]
EC50 [2]: 4.27 µM
IC50 ([3]; Homo sapiens, HEK293): 0.363 µM

CCCCCCCCS(=O)(=O)NCCCN(CCCNCCCCNCCCN)CCCNS(=O)(=O)CCCCCCCC [MQTS 2406, N^1-Bis[N-octanylsulfonyl-3-aminopropyl]-1,14-diamino-5,10-diazabutadecane]
EC50 [2]: 2.17 µM
IC50 ([3]; Homo sapiens, HEK293): 0.669 µM

CCCCCCCCCCCCS(=O)(=O)NCCCN(CCCNCCCCNCCCN)CCCNS(=O)(=O)CCCCCCCCCCCC [MQTS 2420, N^1-Bis[N-dodecanylsulfonyl-3-aminopropyl]-1,14-diamino-5,10-diazabutadecane]
IC50 [1]: 2.27 µM
EC50 [2]: 3.98 µM
IC50 ([3]; Homo sapiens, HEK293): 13.2 µM

CCCCCCCCCCCCS(=O)(=O)NCCNCCCNCCN [MQTS 2412]
EC50 [2]: 4.77 µM
IC50 ([3]; Homo sapiens, HEK293): 0.686 µM

CCCCCCCCCCCCCCCCS(=O)(=O)NCCN(CCN)CCN [MQTS 2410]
EC50 [2]: 3.54 µM
IC50 ([3]; Homo sapiens, HEK293): 0.379 µM

CCCCCCCCCCCCCCCCS(=O)(=O)NCCCOCCCCOCCCN [MQTS 2370]
IC50 [1]: 30.9 µM
EC50 [2]: > 5000 µM
IC50 ([3]; Homo sapiens, HEK293): 22.4 µM
activity in words (LPS binding / cell-based cytokine inhibition, comment on Table F) [3]: much lower activities

CCCCCCCCS(=O)(=O)NCCCNCCCNCCCN [MQTS 2413]
EC50 [2]: 6.7 µM
IC50 ([3]; Homo sapiens, HEK293): 5.56 µM

CCCCCCCC(=O)NCCCN(CCCNCCCCNCCCN)CCCNC(=O)CCCCCCC [MQTS 2421]
IC50 [1]: 9.02 µM
EC50 [2]: 1.32 µM
IC50 ([3]; Homo sapiens, HEK293): 9.76 µM
activity in words (LPS binding / cell-based cytokine inhibition, comment on Table F) [3]: greatly diminished activity

N^1,N^14-Bis[N-hexadecanylsulfonyl-3-aminopropyl]-1,14-diamino-5,10-diazabutadecane [MQTS 2400]
EC50 [2]: 133 µM
IC50 [3]: 11.7 µM

CCCCCCCCCCCCS(=O)(=O)NCCCNC/C=C/CNCCCN [MQTS 2416]
EC50 [2]: 3.83 µM
IC50 ([3]; Homo sapiens, HEK293): 0.522 µM
activity in words (LPS binding / cell-based cytokine inhibition, comment on Table F) [3]: active

CCCCCCCCCCCCCCCCS(=O)(=O)NCCCN(CCCNCCCCNCCCN)CCCNS(=O)(=O)CCCCCCCCCCCCCCCC [MQTS 2396]
IC50 [1]: 15.1 µM
EC50 [2]: 26.4 µM
IC50 ([3]; Homo sapiens, HEK293): 4.85 µM

CCCCCCCCCCCCS(=O)(=O)NCCCN(CCCNCCCNCCCCNCCCN)CCCNS(=O)(=O)CCCCCCCCCCCC [MQTS 2390, N^1-Bis[N-dodecanylsulfonyl-3-aminopropyl]-1,18-diamino-5,9,14-triazaoctadecane]
IC50 [1]: 0.51 µM
EC50 [2]: 6.82 µM
IC50 ([3]; Homo sapiens, HEK293): 16.4 µM

CCCCCCCC(=O)NCCCN(CCCNCCCNCCCCNCCCN)CCCNC(=O)CCCCCCC [MQTS 2418]
IC50 [1]: 2.48 µM
EC50 [2]: 1 µM
IC50 ([3]; Homo sapiens, HEK293): 3.17 µM
activity in words (LPS binding / cell-based cytokine inhibition, comment on Table F) [3]: greatly diminished activity

CCCCCCCCS(=O)(=O)NCCNCCCNCCN [MQTS 2411]
EC50 [2]: 10.6 µM
IC50 ([3]; Homo sapiens, HEK293): 13.8 µM

CCCCCCCCCCCCS(=O)(=O)NCCCNCCCCNCCCN [MQTS 2357, N^1-Dodecanylsulfonyl-1,14-diamino-5,10-diazabutadecane]
IC50 [1]: 1.34 µM
EC50 [2]: 2.69 µM
IC50 ([3]; Homo sapiens, HEK293): 0.41 µM

CCCCCCCCCCCCCCCCCCS(=O)(=O)NCCCNCCCCNCCCCNCCCCNCCCNS(=O)(=O)CCCCCCCCCCCCCCCCCC [MQTS 2401, N^1,N^14-Bis[N-octadecanylsulfonyl-3-aminopropyl]-1,14-diamino-5,10-diazabutadecane]
EC50 [2]: > 5000 µM
IC50 [3]: 6.49 µM

CCCCCCCCCCS(=O)(=O)NCCCNCCCCNCCCN [MQTS 2377, N^1-Decanylsulfonyl-1,14-diamino-5,10-diazabutadecane]
IC50 [1]: 4.42 µM
EC50 [2]: 3.7 µM
IC50 ([3]; Homo sapiens, HEK293): 0.5 µM

N^1,N^14-Bis[N-decanylsulfonyl-3-aminopropyl]-1,14-diamino-5,10-diazabutadecane [MQTS 2398]
EC50 [2]: 13.5 µM
IC50 [3]: 4.2 µM

CCCCCCCCCCCCCCCCS(=O)(=O)NCCCN(CCCN)CCCN [MQTS 2409]
EC50 [2]: 12.3 µM
IC50 ([3]; Homo sapiens, HEK293): 9.19 µM

CCCCCCCCCCCCCCCCS(=O)(=O)N(CCCN)CCCCNCCCN [MQTS 2363]
IC50 [1]: 13.7 µM
EC50 [2]: 45.6 µM
IC50 ([3]; Homo sapiens, HEK293): 2.68 µM
activity in words (LPS binding / cell-based cytokine inhibition, comment on Table F) [3]: greatly diminished activity
